Data: US5061691A, “Enkephalin analogs” (Kabushiki Kaisha Vitamin Kenkyuso, priority 1987, dated 1991)
Like-named read-outs stand apart in the source and are kept apart here. Peptide text beside a SMILES is read from it.

Experiments:
mouse vas deferens (MVD) [1] = molecular target: T1, mouse vas deferens (MVD) (Mus musculus, UniProt P32300); type: cell-based
[2] = i.c.v. or i.v. administration; cited from earlier work
guinea pig ileum (GPI) = guinea pig ileum (GPI) (Cavia porcellus, UniProt P97266); conditions: value from Shimohigashi et al., Peptide Chemistry 1985 p. 51 (1986); cited from earlier work
Chain of guinea pig ileum (GPI) (P97266 whole entry): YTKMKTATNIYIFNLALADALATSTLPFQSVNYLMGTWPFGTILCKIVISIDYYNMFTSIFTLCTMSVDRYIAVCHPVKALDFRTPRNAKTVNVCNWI

mouse vas deferens (MVD) [3] = molecular target: T1, mouse vas deferens (MVD); conditions: cited from earlier work
μ and δ opiate receptors = conditions: Lutz et al., Eur. J. Pharmacol. 111, 257 (1985); cited from earlier work

T1 sequence (P32300 whole entry): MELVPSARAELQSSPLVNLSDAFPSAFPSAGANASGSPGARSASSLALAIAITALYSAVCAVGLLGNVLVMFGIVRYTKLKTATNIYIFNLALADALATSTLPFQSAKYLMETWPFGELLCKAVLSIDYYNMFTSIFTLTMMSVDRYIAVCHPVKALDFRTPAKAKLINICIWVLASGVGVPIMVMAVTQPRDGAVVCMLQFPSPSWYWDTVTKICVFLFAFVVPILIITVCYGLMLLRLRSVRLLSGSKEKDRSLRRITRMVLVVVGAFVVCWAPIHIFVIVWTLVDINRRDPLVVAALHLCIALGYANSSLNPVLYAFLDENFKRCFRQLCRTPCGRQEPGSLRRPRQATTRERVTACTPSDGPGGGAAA

NC(=O)[C@@H]1CCCN1C(=O)[C@H](Cc1ccccc1)NC(=O)[C@@H]1CCCN1C(=O)[C@@H](N)Cc1ccc(O)cc1 [Morphiceptin, H--Tyr--Pro--Phe--Pro--NH2] (H-YPFP-NH2)
Activity ratio MVD/GPI (mouse vas deferens (MVD) [1]): 5.7

β -Endorphin: consists of 31 amino acid residues and is a fragment of β -lipotropin (YGGFMTSEKSQTPLVTLFKNAIIKNAYKKGE; Beta-endorphin; UniProt P01189 237-267, looked up)
analgesic activity [2]: marked and long-lived analgesic activity

(H--Tyr--D--Ala--Gly--NH--CH2 --)2 [DTRE2]
IC50 (guinea pig ileum (GPI)): 0.44 µM
opiate activity and selectivity in bioassays (GPI and MVD assays) (mouse vas deferens (MVD) [3]; GPI and MVD bioassays, Shimohigashi et al. (1986)): morphine-like activities and greater selectivity for μ than for δ
Activity ratio MVD/GPI (mouse vas deferens (MVD) [3]; ratio of IC50, from Shimohigashi et al., Peptide Chemistry 1985 p. 51 (1986)): 6.1
IC50 (mouse vas deferens (MVD) [3]; value from Shimohigashi et al., Peptide Chemistry 1985 p. 51 (1986)): 2.7 µM
selectivity for μ than for δ in receptor binding assay (μ and δ opiate receptors): about 400 fold
